# Assay results published in US20230218555A1, “CREATINE, ITS DERIVATIVES, COMPOSITIONS AND METHODS OF USE THEREOF” (priority 2021, published 2023).
# “Also recorded” adds a separate entry of the source.
# Assays:
# Format in all cases: in vivo, human
# [1] = tested on: rheumatoid arthritis; rheumatoid nodule; assay: Example 13: rheumatoid arthritis fingers, nodule injection and glove application; conditions: left hand only
# Method: A subject noted changes in their fingers that appeared to be compatible with the diagnosis of early rheumatoid arthritis in autumn of the year. At about one month later there appeared over the terminal interphalangeal joint of the left third finger a raised inflammatory nodule compatible with the diagnosis of a rheumatoid nodule. The nodule was injected with 0.15 ml of a 2% aqueous solution/suspension of creatine monohydrate once weekly for four injections. […] Thereafter, for a period of one month, the subject wore a nitrile glove containing a few drops N-acetyl ethyl creatine 3% dissolved in water: propylene glycol 8:2 for about an hour twice daily on the left hand only.
# bunion on right foot = assay: Example 21: subcutaneous injection over bunion; conditions: weekly subcutaneous injections of 1.5% aqueous solution
# Text: A subject presented with bunion on right foot that has been enlarging over the past decade. […] Weekly injections will be continued for another month or two to determine whether complete resolution will be achieved.
# [2] = tested on: muscular pain of upper right back, dystonia; assay: Example 23: pain of dystonia, local subcutaneous injections
# Method: Five sites of the upper back were injected with 0.3 ml C15 in aqueous solution using insulin syringes with 30G short needles. […] At that time the injections were repeated just before […] departed on a trip to Europe.
# [3] = tested on: Rheumatoid Arthritis (RA); assay: Example 26: rheumatoid arthritis, intralesional injection and topical; conditions: 3-9% in WP 82 in nitrile gloves, 1 hour twice daily, after the creatine injections
# Method: A subject, described in an earlier Example, after approximately 4 months of worsening symptoms, and finger joint enlargements on both hands, realized that they were rapidly developing RA, especially when a rheumatoid nodule enlarged over the terminal joint of the left […] finger to a size of approximately 1 cm in diameter, and about 3 mm thick. The nodule was initially injected with 0.15 ml of a 2% aqueous solution/suspension of creatine monohydrate once weekly for 4 injections. […] Thereafter the subject wore a nitrile glove containing a few drops of C15 3-9% dissolved in WP 82 for an hour twice daily on the left hand only. After another 2 months C15 9% in WP 82 was topically applied by means of their wearing nitrile gloves containing the C15 solution for 1 hour twice daily. […] It is intended for the subject to continue topical treatment in one form or another for an indefinite time forward.
# [4] = tested on: pruritic urticarial mosquito bite lesions; assay: Example 28: mosquito bite itch
# Method: Six subjects, 2 males and 4 females, age 31-74 years, who had gathered for a back yard cookout, suffered multiple mosquito bites. One subject carried 2 ounces of C15 6% in WEP 532 shared with the five others for topical application to the pruritic urticarial mosquito bite lesions.
# This solution was later applied to an intensely pruritic urticarial lesion, 1 cm in diameter, due to a mosquito bite. […] Clinical evidence of the lesion began to fade about 3 minutes later, and at 5 minutes the subject had no sensory awareness of the lesion as it disappeared over the next 10-15 minutes.
# eczema = assay: Examples 30 and 37: itch and eczema
# Text: subject two, with a 25 year history of eczema, was provided a topical formulation of 6% C15 in a lotion made up of hydrophilic ointment USP 35% diluted with 65% water. […] They emphasized, however, that their eczema worsens in the autumn and winter, so their final judgment needs to be delayed from the summer season to several months later.
# subject four with a 14 year history of eczema was provided the same lotion.
# subject three, with a history of eczema for 35 years, was provided the same solution. […] They have expressed great gratitude and hopes that the same beneficial results will persist during the autumn and winter seasons.
# subject two, with a 25 year history of eczema, was provided a topical formulation of 6% C15 in a lotion made up of hydrophilic ointment USP 35% diluted with 65% water. After ten days of topical applications, itch was relieved for intervals of 1.5 hour up to 24 hours. […] Sites of itch were treated with prompt application of the above lotion which completely aborted further development.
# subject four with a 14 year history of eczema was provided the same lotion. […] Patient has moved from the area and has been lost to long term follow up.
# subject three, with a history of eczema for 35 years, was provided the same formulation. […] They expressed great gratitude and hoped that the same beneficial results would persist during the autumn and winter months.
# They reported: “I use it sparingly. If I feel any itch or see a little patch I put it on and it's gone like the next day. […] It's so great. It's miraculous!”
# erythematous pharyngitis = assay: Example 31: sore throat, spray mist
# Method: A subject, upon arising from bed in the morning, was acutely aware of a severe sore throat. […] They were provided, in a 2 oz spray container, a 3% aqueous solution of C15 that they sprayed into their moth toward the inflamed pharynx. […] Repeated spraying during the day were followed by longer pain free intervals. They reported that at 7 PM the last pain free interval had been 1 hour. Next morning the pharyngitis had improved, and the subject used spray mist less frequently.
# post trauma pain = assay: Example 33: post trauma pain of hand
# Text: A subject was provided a 9% solution of C15 in WEP 532 for possible use against itch or pain. Several weeks later they sent by e-mail the following message:
# “Yesterday I slammed the top of my hand accidentally against a door. That really hurt and I could barely move my hand. Started to ice it and then realized that I had decided to keep one bottle of the pain medicine here at the shore. […] Like a miracle. Iced it after as I could tell a welt was forming. Again at bedtime I put a little of the pain med on it in case the earlier application wore off and iced again as it was a bit swollen. Looked red and maybe a little swollen this morning but no pain!”
# [5] = tested on: post trauma pain in the pinned ankle; assay: Example 34: ankle pain after surgical insertion of metal screws; conditions: prior applications of C15 formulations
# Method: A subject with above described post trauma pain at the end of each day experienced painful discomfort in the pinned ankle. […] Complete relief lasted nearly 24 hours. At the end of the next day, the ankle was as painful as the days before. Subject applied 6% C20 in same liquid vehicle.
# [6] = 6% lotion as needed, person three
structure (smiles),measurement,setting,value
"CCOC(=O)CN(C)C(N)=NC(C)=O [Compound C15, N-acetyl ethyl creatinate]",pain on making a fist,[1]; 3% in glove,the left fist was pain free whereas the right fist was substantially painful
same,size of tight fist,[1]; 3% in glove,the size of the left fist was visibly smaller than that of the right
same,flexibility of hand and fingers,"[1]; 3% in glove, right hand restricted",The left hand and fingers were completely flexible
same,feel of treated left hand vs untreated right hand,"[1]; 3% in water: propylene glycol 8:2 in nitrile glove, about an hour twice daily, one month, after another two months",feel much better than the right hand
same,change of bunion,bunion on right foot,distinct resolution in mass
same,duration of relief,[2]; first injections,2 weeks
same,extent of pain relief,[2]; five sites of upper back injected with 0.3 ml aqueous solution,Complete relief of pain
same,time to pain relief,"[2]; five sites, 0.3 ml",within the next hour
same,duration of relief after repeated injections,[2]; repeated injections,lasting beyond two week period
same,appearance of hands after 9 months of treatments,[3],both hands appear to be completely normal
same,extent of itch relief,"[4]; 6% in WEP 532, topical, six subjects",itch was completely eradicated
same,extent of itch relief,"[4]; 6% in WEP 532, person one, lesion 1 cm",all itch sensation was gone and did not return
same,time to eradication of itch,"[4]; 6% in WEP 532, six subjects",about 1 minute
same,time to loss of itch sensation,[4]; person one,≤ 1 min
same,"time until lesion began to fade, after itch relief",[4]; person one,about 3 minutes
same,time of disappearance of lesion,"[4]; person one, counted from 5 minutes",10 to 15 min
same,return of itch,[4]; six subjects,No itch returned
same,itch after 4 days of application,eczema; [6],itch was now negligible; also recorded: itch became negligible
same,signs of eczema on skin,eczema; [6],skin was nearly entirely free of signs of eczema; also recorded: skin became nearly entirely free of signs of eczema
same,extent of itch relief,"eczema; 6% lotion, 2 weeks, person four",itch was relieved completely
same,duration of itch relief after a single application,"eczema; 6% lotion, person four",24 to 48 h
same,eczema after ten days,"eczema; 6% lotion, person two",felt that their eczema was undergoing resolution
same,eczema at the end of the following February,"eczema; 6% lotion, person two",eczema was still under almost complete resolution
same,skin at the end of February,eczema; person three,their skin has remained clear
same,relief of pain,erythematous pharyngitis; 3% aqueous solution sprayed toward pharynx,immediate complete relief of pain
same,"duration of relief, first spraying",erythematous pharyngitis; 3% aqueous spray,25 min
same,last pain free interval at 7 PM,erythematous pharyngitis; repeated spraying during the day,1 h
same,relief of pain,"post trauma pain; 9% in WEP 532, topical to hand",in a minute or two the pain went away
same,pain next morning,post trauma pain; second application at bedtime,no pain
same,extent of pain relief,[5],substantially relieve the pain but not completely
